Measurements reported in patent US7678884B2, “Biologically active peptide and agent containing the same” (Seikagaku Corporation, priority 2003, dated 2010).
Ends that are not written are not given here.

Experiments:
[1] = tested on: MC3T3 cells; experiment: Cell growth of MC3T3 cells (cell number); format: cell-based, mouse; conditions: αMEM containing 2% FBS; on Day 6; versus control (FIG. 3)
Experimental: (§1) As mouse-derived osteoblasts, cells of the MC3T3 cell strain or ST2 cell strain (purchased from Riken Cell Bank) were used. • (iii) Rat Femur Bone Marrow-derived Mesenchymal Stem Cells (BMMSC)
The PDL cells prepared in (1) were inoculated on a 24-well culture plate (FALCON) at a ratio of 5×10^3 cells/well. After the inoculation, the cells were cultured in DMEM containing 10% FBS for 1 day. On Day 0, next day of the inoculation, the peptide (a) prepared above was added to a culture medium (DMEM containing 2% FBS) at various concentrations. On Days 4 and 6, the cells were separated and dispersed by using PBS containing 0.08% trypsin and 0.04% ethylenediaminetetraacetic acid (EDTA), and cell number was counted by using a Coulter counter (COULTER Z1, Coulter Electronics).
Further, the peptides (a) and (b) were similarly examined for cell growth promoting effect on the MC3T3 cells. […] The symbol “cont” in FIG. 3 indicates the results for the cells cultured in αMEM containing 2% FBS alone, “B” indicates the results for the cells cultured in the medium added only with BMP2 (bone morphogenetic protein 2, Yamanouchi Pharmaceutical Co., Ltd.), “HN” indicates the results for the cells cultured in the medium added only with the peptide (b), and “PN” indicates the results for the cells cultured in the medium added with only the peptide (a). […]

[2] = tested on: Rat femur bone marrow-derived mesenchymal stem cells (BMMSC); experiment: Cell differentiation of BMMSC cells (ALP activity); format: cell-based; conditions: for cell differentiation promoting effect on BMSSC cells relative to BMP2: at confluent state (FIG. 8), comparison with BMP2; for cell differentiation promoting effect (ALP activity) on BMSSC cells: at confluent state, αMEM containing 2% FBS (FIG. 8)
Source text: Rat femur bone marrow-derived mesenchymal stem cells (BMMSC) were used. The cell strain of the cells was obtained according to the method of Maniatopoulos et al. (Maniatopoulos C, Sodek J and Melcher A H, Bone formation in vitro by stromal cells obtained from bone marrow of young adult rats, Cell Tissue Res., 254: 317-330, 1988). The femur was aseptically extracted, and surrounding soft tissue was removed as far as possible. The mesiodistal epiphysis of the femur was cut off, and the femur marrow tissue in 5 ml of 15S-containing minimum essential medium alpha medium (αMEM, GIBCO) was injected into 10 ml of the same culture broth by using a syringe. The obtained tissue was cultured in the 15S-containing αMEM at 37° C., and the 3rd to 5th generation cells were used for experiments. • (iv) Mouse-derived Cementoblasts
(§2) As an index of cell differentiation, alkaline phosphatase (ALP) activity of cells was determined. Cells were inoculated in a 24-well culture plate at a ratio of 5×10^3 cells/well, added with the peptide (a) at various concentrations and cultured in DMEM or αMEM containing 2% FBS. One week after the time point when the cells reached a confluent state, ALP activity was determined by the following enzymochemical method (Bessey-Lowry method, Bessey O A, Lowry O H and Brock M J, A method for the rapid determination of alkaline phosphatase with five cubic millimeter of serum, J. Biol. Chem., 164:321-329, 1946).
(§3) The cultured cells were washed with PBS and then disrupted in 10 mM Tris-HCl buffer (pH 7.4, 500 μl) for 40 seconds by using an ultrasonic homogenizer (Handy Sonic model UR-20P, Tomy Seiko) and stirred. Then, 25 μl of this sample liquid was added to 125 μl of ALP buffer (0.1 M carbonate buffer, pH 9.8, 6.7 mM p-nitrophenyl phosphate, 2 mM MgCl2) and incubated at 37° C. for 30 minutes. The reaction was terminated by addition of 125 μl of 0.2 N NaOH, and absorbance was measured at 405 nm by using a microplate reader (Model 550, Bio-Rad Laboratories).
Further, the peptides (a) and (b) and BMP2 were similarly examined by using the ST2 cells and BMMSC cells. The symbol “cont” in the figures indicates the results for the cells cultured in αMEM containing 2% FBS alone, “B” indicates the results for the cells cultured in the medium added only with BMP2, “HN” indicates the results for the cells cultured in the medium added only with the peptide (b), and “PN” indicates the results for the cells cultured in the medium added only with the peptide (a). In the figures, the unit of numerical values shown after “B,” “HN” and “PN” is “ng/ml.”

[3] = tested on: MC3T3 cells; experiment: Cell differentiation of MC3T3 cells (ALP activity); format: cell-based, mouse; conditions: for cell differentiation promoting effect (ALP activity) on MC3T3 cells: at confluent state and one week after (FIG. 9, FIG. 10)
Experimental: as §1, §2, §3
Further, the peptides (a) and (b) were similarly examined by using the MC3T3 cells. ALP activity determined when the cells reached a confluent state is shown in FIG. 9, and ALP activity determined one week after the confluent state was attained is shown in FIG. 10. The symbol “cont” in the figures indicates the results for the cells cultured in αMEM containing 2% FBS alone, “PN” indicates the results for the cells cultured in the medium added only with the peptide (a), and “HN” indicates the results for the cells cultured in the medium added only with the peptide (b). Further, “ng” in the figures represents “ng/ml.” […]

Sequence | MC3T3 cell number (cell growth promoting effect) [1] | cell differentiation promoting effect on BMSSC cells relative to BMP2 [2] | cell differentiation promoting effect (ALP activity) on BMSSC cells [2] | cell differentiation promoting effect (ALP activity) on MC3T3 cells [3] | cell differentiation promoting effect (ALP activity) on the MC3T3 cell strain ([3]; final concentration of 100 ng/ml, versus control (FIG. 12))
VPAFPRQPGTPGVASL [Peptide (a)] | significantly increased | comparable to or higher than that of BMP2 | significant cell differentiation promoting effect | significant cell differentiation promoting effect | –
VPFFPQQSGTPGMASL [Peptide (b), peptide designed on the portion of human-derived sheathlin protein corresponding to (a)] | significantly increased | comparable to or higher than that of BMP2 | significant cell differentiation promoting effect | significant cell differentiation promoting effect | high cell differentiation promoting effect
